# Laboratory results reported in patent US6638949B1, “Prevention of adhesions and excessive scar formation using angiogenesis inhibitors” (priority 1997, dated 2003).
# Assays:
# Type in all cases: in vivo, mice
# [1] = tested on: full thickness mouse wounds; experiment: Histology of full thickness mouse wounds (hematoxylin and eosin) after TNP-470 treatment
# Description: Full thickness mouse wounds were made in adult mice, the majority of whom were six to eight weeks old and some of whom were fourteen to sixteen weeks old. Mice were pretreated for sixty days with TNP-470, then wounds were made, and healing monitored. Mice were treated with 30 mg/kg TNP-470 administered subcutaneously every other day. Histological micrographs of open mouse wounds harvested at 7, 12, and 17 days post excision were made. The biopsies were fixed, embedded, sectioned and stained with hematoxylin and eosin.
# [2] = tested on: basic fibroblast growth factor (bFGF); experiment: Endogenous basic fibroblast growth factor (bFGF) in the wound; conditions: day 10 after wound; average; p≦0.05
# Description: FIG. 1 is a graph of endogenous basic fibroblast growth factor (bFGF)(pg/cm2) over time (days after wounding) of mice treated with TNP-470 (solid circles) and controls that were not treated (open circles). Full thickness mouse wounds were made in adult mice, the majority of whom were six to eight weeks old and some of whom were fourteen to sixteen weeks old. Mice were pretreated for sixty days with TNP-470, then wounds were made, and healing monitored. Mice were treated with 30 mg/kg TNP-470 administered subcutaneously every other day. Mice were treated essentially the same as described in Example 1.
# full thickness wounds = experiment: Wound closure / contraction of full thickness wounds
# Description: FIG. 2 is a graph of percent wounds open over time (days after wounding) for mice treated with TNP-470 for different dosage regimes: pretreatment days −60 to day 0; treated with TNP-470 days 5 to 18; treated with TNP-470 days 0 to 18; and treated with TNP-470 days 0, 2 and 4. Full thickness mouse wounds were made in adult mice, the majority of whom were six to eight weeks old and some of whom were fourteen to sixteen weeks old. Mice were pretreated for sixty days with TNP-470, then wounds were made, and healing monitored. Mice were treated with 30 mg/kg TNP-470 administered subcutaneously every other day. Mice were treated essentially the same as described in Example 1. Histological analysis of the wounds in the control and treated mice compared contraction of full thickness wounds in mice treated with systemic TNP-470 (AGM 1470), every other day after the wound is made, with untreated mice. Treatment with TNP-470 every other day after the wound is made (at a dose identical to that which results in maximal tumor inhibition) causes a 5-day delay in the complete contraction of the wound.
# linear wounds = experiment: Breaking strength (tensile strength) of linear wounds; conditions: for inhibition of breaking strength: systemic, FIG. 3, n=280 mice, statistically significant
# Description: FIG. 3 is a graph of breaking strength (tensile strength) of linear wounds after systemic administration of TNP-470 days −20 to 0; days 0 to 4; days 0 to 12; days 5 to 12; and control, measured on days 4, 7 and 12 after wounding. Mice were treated essentially the same as described in Example 1. FIG. 3 (n=280 mice)graphs breaking strength of linear wounds after systemic administration of TNP-470. Breaking strength was inhibited 36% on post wound day 7 and 43% on post wound day 12. This was statistically significant. The wounds were inhibited if TNP-470 was given on post wound days 0, 2, 4 or post wound days 0, 2, 4, 6, 8, and 10.
# [3] = 17 days post excision, vs untreated
# [4] = given on post wound days 0, 2, 4, or post wound days 0, 2, 4, 6, 8, and 10
smiles,measurement,setting,value
"CO[C@@H]1[C@H](OC(=O)NC(=O)CCl)CC[C@]2(CO2)[C@H]1[C@@]1(C)O[C@@H]1CC=C(C)C [TNP-470, 0-chloroacetylcarbamoyl-Fumagillol]",blood vessels in healing wound granulation tissue,"[1]; 7 days post excision, 30 mg/kg s.c. every other day, vs untreated",relatively lower density of blood vessels
same,blood vessels in granulation tissue under re-epithelialized surface,"[1]; 12 days post excision, wound not completely closed, vs untreated",fewer vessels with smaller diameters
same,blood vessels in mature granulation tissue of healed wound,[1]; [3],reduction in the number of vessels
same,density of mesenchymal cells in granulation tissue,[1]; [3],continued higher density of mesenchymal cells
same,scar formation (histologic findings),"[1]; overall, 7, 12 and 17 days",severely retarded scar formation
same,reduction of bFGF concentration in wound,[2],37%
same,"wound healing slowed, time to full contraction","full thickness wounds; FIG. 2, n=440 mice, statistically significant",5 days
same,wound healing,full thickness wounds; [4],remained inhibited
same,delay in the complete contraction of the wound,"full thickness wounds; systemic, every other day after the wound is made, dose of maximal tumor inhibition",5 days
same,breaking strength of wounds,linear wounds; [4],inhibited
same,inhibition of breaking strength,linear wounds; post wound day 7,36%
same,inhibition of breaking strength,linear wounds; post wound day 12,43%
